Like-named read-outs stand apart in the source and are kept apart here.
Tests used:
[1] = test system: Ba/F3 cells expressing various mutant forms of FLT3; experiment: Growth inhibition of Ba/F3 cells; format: cell-based, murine; details: Mus musculus, BaF3; Ba/F3, various mutant forms of FLT3, range
Protocol: (§1) MV-4-11 (CRL-9591), HS-5 (CRL-3611), and KG1a (CCL-246.1) cells were obtained from ATCC. MOLM-13 (ACC 554) and MOLM-14 (ACC 777) were obtained from DSMZ (Deutsche Sammlung von Mikroorganismen und Zellkulturen). MOLM-14 cells contain one WT FLT3 allele and one FLT3-ITD allele. MOLM-14 FLT3-ITD/F691 cells were prepared by transfection of MOLM-14 cells with a vector expressing the FLT3 TKD F691L mutation. MV-4-11 cells expressing NRAS^G12D were prepared by transduction with a lentiviral vector encoding the NRAS^G12D mutation. Assays using a panel of parental Ba/F3 into which an additional copy of either WT or a mutant form of FLT3 was introduced were performed at Kyinno Biotechnology Co., Ltd. All cell lines were short tandem repeat authenticated at ATCC or at DSMZ when originally obtained, and no further authentication was done after receipt of the cells in the laboratory.
(§2) Assays using Ba/F3 cells expressing WT and mutant forms of FLT3 were performed by Kyinno Biotechnology. The cells were cultured in the medium recommended by the source for each cell line. Growth inhibition assays were performed using either Cell Titer 96 Aqueous One Solution Cell Proliferation assay (Promega, # G3581) or CCK8 (Dojindo, # CK-04). […] IC50 values were determined from growth inhibition curves fitted using GraphPad Prism and a nonlinear regression model with sigmoidal dose response. […]

CYP2C8 = CYP2C8 (Homo sapiens, UniProt P10632); experiment: CYP inhibition; format: in vitro ADME
CYP3A = experiment: CYP inhibition; format: in vitro ADME; details: human
[2] = test system: AML cell lines expressing FLT3 ITD (MV-4-11, MOLM-13, and MOLM-14); experiment: Growth inhibition of AML cell lines; format: cell-based; details: Homo sapiens; range over MV-4-11, MOLM-13, MOLM-14
Protocol: as §1, §2

[3] = test system: BIM in parental MOLM-14 cells; experiment: Western blot of apoptotic proteins; details: 75 nmol/L TUS, 48-hour exposure
TUS/R MOLM-14 cells = experiment: Growth inhibition of TUS-resistant sublines versus parental; format: cell-based, human; details: Homo sapiens, MOLM-14; read-out: IC50, cells with acquired resistance
[4] = test system: MCL1 in parental MOLM-14 cells; experiment: Western blot of apoptotic proteins; details: 75 nmol/L TUS, 48-hour exposure
[5] = Repeat daily dose toxicity and safety pharmacology in rats; format: in vivo
Description: In both species, all adverse events were reversible. There were no alterations in clinical chemistry parameters. Neuropharmacology and respiratory function assessment in rats disclosed no concerns.

[6] = test system: Ba/F3 cells FLT3 ITD/D835Y; experiment: Growth inhibition of Ba/F3 cells; format: cell-based, murine; details: Mus musculus, BaF3
Protocol: (§3) MV-4-11 cells expressing NRAS^G12D were prepared by transduction with a lentiviral vector encoding the NRAS^G12D mutation. Assays using a panel of parental Ba/F3 into which an additional copy of either WT or a mutant form of FLT3 was introduced were performed at Kyinno Biotechnology Co., Ltd. All cell lines were short tandem repeat authenticated at ATCC or at DSMZ when originally obtained, and no further authentication was done after receipt of the cells in the laboratory.
(§4) Assays using Ba/F3 cells expressing WT and mutant forms of FLT3 were performed by Kyinno Biotechnology. The cells were cultured in the medium recommended by the source for each cell line. Growth inhibition assays were performed using either Cell Titer 96 Aqueous One Solution Cell Proliferation assay (Promega, # G3581) or CCK8 (Dojindo, # CK-04). […] IC50 values were determined from growth inhibition curves fitted using GraphPad Prism and a nonlinear regression model with sigmoidal dose response. Unless otherwise indicated, data are presented as mean ± SEM.

[7] = test system: Ba/F3 cells FLT3 ITD/F691L; experiment: Growth inhibition of Ba/F3 cells; format: cell-based, murine; details: Mus musculus, BaF3
Protocol: as §3, §4

Ba/F3 cells FLT3 D835Y = experiment: Growth inhibition of Ba/F3 cells; format: cell-based, murine; details: Mus musculus
Protocol: as §3, §4

Ba/F3 cells FLT3 ITD = experiment: Growth inhibition of Ba/F3 cells; format: cell-based, murine; details: Mus musculus
Protocol: as §3, §4

Ba/F3 cells FLT3 WT = experiment: Growth inhibition of Ba/F3 cells; format: cell-based, murine
Protocol: as §3, §4

MOLM-13 cells = experiment: Growth inhibition of AML cell line; format: cell-based; details: Homo sapiens, mean ± SD
Protocol: as §3, §4

[8] = test system: MV-4-11 NRAS G12D Clone 1; experiment: Growth inhibition of NRAS G12D clone; format: cell-based, human
Protocol: as §3, §4

[9] = test system: MV-4-11 NRAS G12D Clone 15; experiment: Growth inhibition of NRAS G12D clone; format: cell-based, human
Protocol: as §3, §4

[10] = test system: MV-4-11 NRAS G12D Clone 4; experiment: Growth inhibition of NRAS G12D clone; format: cell-based, human; details: Homo sapiens, MV4-11; MV-4-11 NRAS G12D, high expression; mean ± SEM; read-out: GI50 (nM) Clone 4
Protocol: as §3, §4

[11] = Tolerability in orthotopic AML models; format: in vivo; details: daily dosing at 30 mg/kg, all three orthotopic models
Description: ; Fig. 3A). The increase in the MOLM-13 model was from 37 to 75 days (P < 0.0001; Fig. 3B) and in the MOLM-14 model, it was from 17 to 65 days (Fig. 3C).

CYP2C9 = CYP2C9 (Homo sapiens, UniProt P11712); experiment: CYP inhibition; format: in vitro ADME
TUS/R line 4 (MOLM-14) = experiment: Growth inhibition of TUS-resistant subline; format: cell-based, human; details: Homo sapiens
[12] = 13 to […]-fold increase in NRAS G12D expression
[13] = Homo sapiens, MV4-11, MV-4-11 NRAS G12D, mean ± SEM

CYP2C9, sequence (P11712 whole entry): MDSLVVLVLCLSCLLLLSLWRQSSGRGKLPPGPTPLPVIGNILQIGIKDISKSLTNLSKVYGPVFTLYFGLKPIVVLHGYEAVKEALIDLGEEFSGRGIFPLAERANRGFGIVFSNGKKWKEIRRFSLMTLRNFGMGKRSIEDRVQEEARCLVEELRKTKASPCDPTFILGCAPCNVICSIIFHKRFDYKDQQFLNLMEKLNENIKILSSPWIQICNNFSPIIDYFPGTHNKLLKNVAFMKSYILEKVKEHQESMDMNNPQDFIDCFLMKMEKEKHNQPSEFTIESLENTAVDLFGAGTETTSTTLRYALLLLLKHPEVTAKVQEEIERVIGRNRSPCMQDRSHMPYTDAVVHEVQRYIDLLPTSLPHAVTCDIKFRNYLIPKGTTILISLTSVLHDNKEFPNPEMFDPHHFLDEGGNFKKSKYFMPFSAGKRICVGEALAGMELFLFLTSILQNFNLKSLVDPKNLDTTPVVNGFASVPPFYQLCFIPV
CYP2C8, sequence (P10632 whole entry): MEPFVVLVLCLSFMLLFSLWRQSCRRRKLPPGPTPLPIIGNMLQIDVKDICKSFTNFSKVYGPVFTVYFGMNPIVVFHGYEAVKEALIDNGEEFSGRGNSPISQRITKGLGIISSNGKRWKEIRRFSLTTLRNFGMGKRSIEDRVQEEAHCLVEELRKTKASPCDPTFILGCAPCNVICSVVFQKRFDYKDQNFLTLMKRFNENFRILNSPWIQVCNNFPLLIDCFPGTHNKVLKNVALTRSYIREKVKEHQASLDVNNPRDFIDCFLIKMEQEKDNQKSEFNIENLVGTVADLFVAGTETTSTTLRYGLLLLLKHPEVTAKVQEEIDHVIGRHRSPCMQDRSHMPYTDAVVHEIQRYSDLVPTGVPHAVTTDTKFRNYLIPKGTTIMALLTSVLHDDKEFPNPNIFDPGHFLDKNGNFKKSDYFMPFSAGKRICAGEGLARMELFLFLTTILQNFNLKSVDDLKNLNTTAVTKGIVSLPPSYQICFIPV

Cc1ccc2c(-c3nc(Nc4cc(CN5C[C@@H](C)N[C@@H](C)C5)cc(C5CC5)c4)ncc3Cl)c[nH]c2c1 [TUS, Tuspetinib]
GI50 [1]: 2.5 to 56 nM | Ki (CYP2C8): < 1000 nM | Ki (CYP3A): < 1000 nM | GI50 [2]: 1.3 to 5.2 nM | increase of BIM [3]: 10 fold | IC50 (TUS/R MOLM-14 cells): 139 ± 38.6 nM | reduction of MCL1 [4]: 70% | Neuropharmacology and respiratory function assessment [5]: no concerns | main target organ of toxicity ([5]; repeat daily dose up to 4 weeks): lymphoid organs | GI50 [6]: 16 nM | GI50 [7]: 56 nM | GI50 (Ba/F3 cells FLT3 D835Y; BaF3, Ba/F3 FLT3 D835Y): < 9.1 nM | GI50 (Ba/F3 cells FLT3 D835Y; BaF3, Ba/F3 FLT3 D835Y, mean ± SD, read-out: GI50): 7.3 ± 3.5 nM | GI50 (Ba/F3 cells FLT3 ITD; BaF3, Ba/F3 FLT3 ITD): < 9.1 nM | GI50 (Ba/F3 cells FLT3 ITD; BaF3, Ba/F3 FLT3 ITD, mean ± SD, read-out: GI50): 2.5 ± 0.4 nM | GI50 (Ba/F3 cells FLT3 WT; Ba/F3 FLT3 WT): < 9.1 nM | GI50 (Ba/F3 cells FLT3 WT; Mus musculus, BaF3, Ba/F3 FLT3 WT, read-out: GI50): 9.1 nM | GI50 (MOLM-13 cells): 5.2 ± 0.9 nM | change in sensitivity, clone 1 [8, 12]: did not alter sensitivity | GI50 [8, 13]: 8.7 ± 3 nM | change in sensitivity, clone 15 [9, 12]: did not alter sensitivity | GI50 [9, 13]: 7.7 ± 3.1 nM | GI50 [10]: 69.9 ± 7.4 nM | tolerability / weight loss [11]: well tolerated in mice with no significant weight loss | Ki (CYP2C9): < 1000 nM | GI50 (TUS/R line 4 (MOLM-14); MOLM-14, read-out: GI50 (nM) TUS/R line 4, mean ± SEM (Supplementary Table 6)): 144 ± 31 nM | IC50 (TUS/R line 4 (MOLM-14); MOLM-14, read-out: IC50 (nmol/L), Mean ± SEM, TUS/R line 4): 144 ± 31.5 nmol/L

Reference: article PMC11725774 (Cancer Research Communications, 2025)
